Measured values as given in patent US8481546B2, “CGRP receptor antagonist” (Bristol-Myers Squibb Company, priority 2010, dated 2013).
Read-outs that look alike come from different tables or passages of the source.

Key:
Solution state stability = type: physicochemical
Experimental: The solution state stability of Compound I was evaluated as a function of temperature, pH, high intensity light (HIL), buffer concentration, and drug concentration.
Succinate buffer was used for all solutions. For samples exposed to light, a photostability chamber was used in accordance with ICH guidelines (1.2 million lux hour exposure to visible light and 200 watt hour/m^2 to UV). Analyses were performed at 4, 8 and 12 weeks.

[1] = One-week comparative intranasal irritation study in rats: toxicokinetics; conditions: male, rat, in vivo; for Cmax / Tmax / AUC(0-t) / half-life: inhaled or intranasal; for concentration at 24 h: other: intranasal instillation
Experimental: This study was conducted to compare potential nasal irritation of Compound I to Compound III when given intranasally to male rats for 1 week. Male rats (10/group) were instilled intranasally with Compound I or Compound III solutions ([…] in 225 mM succinic acid, 0.02% benzalkonium chloride, 1.25% anhydrous dextrose, pH 5.8-6.2) once daily at a dose volume of 100 μL/nostril. Using this dosing paradigm, fixed doses of 5, 15 or 35 mg of test article were delivered daily. As a consequence, dosages normalized to body weight decreased with time as the rats grew. One control group was given succinate vehicle and a sham control group was given saline by intranasal instillation. Parameters evaluated included clinical observations, body weight, food consumption, toxicokinetics, and histological evaluation of nasal tissues.

[2] = target: T1, CGRP receptor endogenously expressed in SK-N-MC cell membranes (Homo sapiens, UniProt O60894+Q16602); experiment: Competition for [125I]CGRP binding (radioligand competition assay); conditions: 15 pM [125I]CGRP, read-out: mean Ki, inhibition of [125I]CGRP binding
T1 construct: endogenous in cells; host or cells: SK-N-MC human neuroblastoma cells (membrane homogenate or attached whole cells)
Experimental: SK-N-MC cell membrane homogenate serves as the receptor source. Human neuroblastoma SK-N-MC cells are used for in vitro assays because they endogenously express the CGRP receptor with an identical sequence to the cloned human CGRP receptor (Aiyar et al., 2001). Cells are grown at 37° C. in 5% CO2 in medium consisting of MEM with Earle's salts and L-glutamine supplemented with 10% fetal bovine serum to reach confluence. The cells are harvested by rinsing twice with phosphate-buffered saline and are incubated for 5-10 minutes at 4° C. in hypotonic lysis buffer consisting of 10 mM Tris (pH 7.4) and 5 mM EDTA. The cells are collected and transferred to polypropylene tubes and homogenized using a polytron. Homogenates are centrifuged at 32,000×g for 30 min. The pellets are resuspended in cold hypotonic lysis buffer with 0.1% mammalian protease inhibitor cocktail and assayed for protein concentration. The membrane homogenate is then aliquoted and stored at −80° C. until the day of assay.
The ability of Compound I to compete for the radiolabeled ([^125I]CGRP, Amersham Biosciences) endogenous peptide human alpha CGRP (hαCGRP) is measured using a radioligand competition assay. Compound I is first solubilized in and carried through serial dilutions using 100% DMSO. […] Protein bound radioactivity is measured using a gamma scintillation counter. […]

[3] = Sample A: pH 4, 40 C, 0.1 mg/ml drug, 0.05 M succinate buffer
[4] = Sample B: pH 5, 25 C, 0.1 mg/ml drug, 0.05 M succinate buffer
[5] = Sample C: pH 5, 25 C/light, 0.1 mg/ml drug, 0.05 M succinate buffer
[6] = Sample D: pH 5, 60 C, 0.1 mg/ml drug, 0.05 M succinate buffer
[7] = Sample E: pH 5, 40 C, 0.1 mg/ml drug, 0.05 M succinate buffer
[8] = Sample F: pH 6, 40 C, 0.1 mg/ml drug, 0.05 M succinate buffer
[9] = Sample G: pH 4, 40 C, 40 mg/ml drug, 0.05 M succinate buffer
[10] = Sample H: pH 5, 40 C, 40 mg/ml drug, 0.05 M succinate buffer
[11] = Sample I: pH 6, 40 C, 40 mg/ml drug, 0.05 M succinate buffer
[12] = Sample J: pH 5, 40 C, 0.1 mg/ml drug, 0.01 M succinate buffer
[13] = 5 mg, intranasal 5 mg (0.357 mg/cm^2) once daily, Day 0
[14] = 5 mg, intranasal 5 mg (0.357 mg/cm^2) once daily, Day 6
[15] = 15 mg, intranasal 15 mg (1.07 mg/cm^2) once daily, Day 0
[16] = 15 mg, intranasal 15 mg (1.07 mg/cm^2) once daily, Day 6
[17] = 35 mg, intranasal 35 mg (2.50 mg/cm^2) once daily, Day 0
[18] = 35 mg, intranasal 35 mg (2.50 mg/cm^2) once daily, Day 6

Cc1cc(C[C@@H](NC(=O)N2CCC(c3cc4ccccc4[nH]c3=O)CC2)C(=O)N2CCN(C3CCN(C)CC3)CC2)cc2cn[nH]c12 [Compound I, (R)—N-(3-(7-methyl-1H-indazol-5-yl)-1-(4-(1-methylpiperidin-4-yl)piperazin-1-yl)-1-oxopropan-2-yl)-4-(2-oxo-1,2-dihydroquinolin-3-yl)piperidine-1-carboxamide]
Area percent of Deg A at twelve weeks (Solution state stability; [3]): 2.0 area percent | Area percent of Deg C at twelve weeks (Solution state stability; [3]): 10.5 area percent | Area percent of Deg A at twelve weeks (Solution state stability; [4]): .5 area percent | Area percent of Deg B at twelve weeks (Solution state stability; [4]): 0.1 area percent | Area percent of Deg A at twelve weeks (Solution state stability; [5]): 16.9 area percent | Area percent of Deg B at twelve weeks (Solution state stability; [5]): 2.9 area percent | Area percent of Deg C at twelve weeks (Solution state stability; [5]): 2.8 area percent | Area percent of Deg D at twelve weeks (Solution state stability; [5]): 5.2 area percent | Area percent of Deg E at twelve weeks (Solution state stability; [5]): 1.0 area percent | Area percent of Deg F at twelve weeks (Solution state stability; [5]): 7.7 area percent | Area percent of Deg I at twelve weeks (Solution state stability; [5]): 5.7 area percent | Area percent of Deg A at twelve weeks (Solution state stability; [6]): 1.2 area percent | Area percent of Deg C at twelve weeks (Solution state stability; [6]): 55.0 area percent | Area percent of Deg A at twelve weeks (Solution state stability; [7]): 1.9 area percent | Area percent of Deg B at twelve weeks (Solution state stability; [7]): 0.2 area percent | Area percent of Deg E at twelve weeks (Solution state stability; [7]): .1 area percent | Area percent of Deg A at twelve weeks (Solution state stability; [8]): .4 area percent | Area percent of Deg B at twelve weeks (Solution state stability; [8]): 0.1 area percent | Area percent of Deg E at twelve weeks (Solution state stability; [8]): .1 area percent | Area percent of Deg A at twelve weeks (Solution state stability; [9]): 4.9 area percent | Area percent of Deg E at twelve weeks (Solution state stability; [9]): 3.5 area percent | Area percent of Deg G at twelve weeks (Solution state stability; [9]): 0.1 area percent | Area percent of Deg H at twelve weeks (Solution state stability; [9]): .1 area percent | Area percent of Deg J at twelve weeks (Solution state stability; [9]): 0.1 area percent | Area percent of Deg A at twelve weeks (Solution state stability; [10]): 1.2 area percent | Area percent of Deg B at twelve weeks (Solution state stability; [10]): 0.1 area percent | Area percent of Deg E at twelve weeks (Solution state stability; [10]): 0.0 area percent | Area percent of Deg G at twelve weeks (Solution state stability; [10]): 0.1 area percent | Area percent of Deg J at twelve weeks (Solution state stability; [10]): 0.0 area percent | Area percent of Deg A at twelve weeks (Solution state stability; [11]): .2 area percent | Area percent of Deg B at twelve weeks (Solution state stability; [11]): 0.1 area percent | Area percent of Deg C at twelve weeks (Solution state stability; [11]): 0.0 area percent | Area percent of Deg E at twelve weeks (Solution state stability; [11]): 0.0 area percent | Area percent of Deg G at twelve weeks (Solution state stability; [11]): 0.1 area percent | Area percent of Deg J at twelve weeks (Solution state stability; [11]): 0.1 area percent | Area percent of Deg A at twelve weeks (Solution state stability; [12]): 1.1 area percent | Area percent of Deg B at twelve weeks (Solution state stability; [12]): 0.1 area percent | Area percent of Deg E at twelve weeks (Solution state stability; [12]): .1 area percent | Area percent of Deg H at twelve weeks (Solution state stability; [12]): 0.5 area percent | degradation after 12 weeks at 40 C (Solution state stability; condition I in Table 2: pH 6, 40 C, 40 mg/ml drug, 0.05 M buffer): 0.3% | Cmax [1, 13]: 330 nM | Tmax [1, 13]: 0.5 h | AUC(0-t) ([1]; 5 mg, intranasal 5 mg (0.357 mg/cm^2) once daily, Day 0, read-out: Composite AUC0-24 h): 1.6 µM·h | half-life ([1]; 5 mg, intranasal 5 mg (0.357 mg/cm^2) once daily, Day 0, read-out: Mean T1/2 (converted)): 426 min | Cmax [1, 14]: 660 nM | Tmax [1, 14]: 1 h | AUC(0-t) ([1]; 5 mg, intranasal 5 mg (0.357 mg/cm^2) once daily, Day 6, read-out: Composite AUC0-24 h): 2.6 µM·h | half-life ([1]; 5 mg, intranasal 5 mg (0.357 mg/cm^2) once daily, Day 6, read-out: Mean T1/2 (converted)): 336 min | Cmax [1, 15]: 2200 nM | Tmax [1, 15]: 1 h | AUC(0-t) ([1]; 15 mg, intranasal 15 mg (1.07 mg/cm^2) once daily, Day 0, read-out: Composite AUC0-24 h): 4.6 µM·h | half-life ([1]; 15 mg, intranasal 15 mg (1.07 mg/cm^2) once daily, Day 0, read-out: Mean T1/2 (converted)): 306 min | Cmax [1, 16]: 830 nM | Tmax [1, 16]: 0.5 h | AUC(0-t) ([1]; 15 mg, intranasal 15 mg (1.07 mg/cm^2) once daily, Day 6, read-out: Composite AUC0-24 h): 5.2 µM·h | half-life ([1]; 15 mg, intranasal 15 mg (1.07 mg/cm^2) once daily, Day 6, read-out: Mean T1/2 (converted)): 402 min | Cmax [1, 17]: 1500 nM | Tmax [1, 17]: 2 h | AUC(0-t) ([1]; 35 mg, intranasal 35 mg (2.50 mg/cm^2) once daily, Day 0, read-out: Composite AUC0-24 h): 7.9 µM·h | Cmax [1, 18]: 1200 nM | Tmax [1, 18]: 1 h | AUC(0-t) ([1]; 35 mg, intranasal 35 mg (2.50 mg/cm^2) once daily, Day 6, read-out: Composite AUC0-24 h): 5.4 µM·h | half-life ([1]; 35 mg, intranasal 35 mg (2.50 mg/cm^2) once daily, Day 6, read-out: Mean T1/2 (converted)): 360 min | concentration at 24 h ([1]; 5 mg, intranasal 5 mg (0.357 mg/cm^2) once daily, Day 0, read-out: Mean C24 h): 22 nM | concentration at 24 h ([1]; 5 mg, intranasal 5 mg (0.357 mg/cm^2) once daily, Day 6, read-out: Mean C24 h): 15 nM | concentration at 24 h ([1]; 15 mg, intranasal 15 mg (1.07 mg/cm^2) once daily, Day 0, read-out: Mean C24 h): 17 nM | concentration at 24 h ([1]; 15 mg, intranasal 15 mg (1.07 mg/cm^2) once daily, Day 6, read-out: Mean C24 h): 59 nM | concentration at 24 h ([1]; 35 mg, intranasal 35 mg (2.50 mg/cm^2) once daily, Day 0, read-out: Mean C24 h): 120 nM | concentration at 24 h ([1]; 35 mg, intranasal 35 mg (2.50 mg/cm^2) once daily, Day 6, read-out: Mean C24 h): 36 nM | Ki [2]: 0.0227 nM
